In the NIST ThermoML archive (doi:10.1021/je034209e):
Numbers after ± are expanded uncertainties.

Test: mn = molality of the nth substance listed, in mol/kg
Conditions: 298.15 K, 101.3 kPa, Liquid, Vibrating tube method

SMILES: CCC(N)C(=O)O (stereo not drawn) [(.+-.)-α-aminobutyric acid] + O
- mass density (m1 = 0.03934): 998.127 ± 1.7 kg/m3
- mass density (m1 = 0.08124): 999.275 ± 1.7 kg/m3
- mass density (m1 = 0.1445): 1000.99 ± 1.7 kg/m3
- mass density (m1 = 0.2022): 1002.54 ± 1.7 kg/m3
- mass density (m1 = 0.2374): 1003.48 ± 1.8 kg/m3
- mass density (m1 = 0.2864): 1004.78 ± 1.8 kg/m3
- mass density (m1 = 0.3179): 1005.6 ± 1.8 kg/m3

SMILES: NCC(=O)O [2-aminoacetic acid] + O
- mass density (m1 = 0.09741): 1000.14 ± 1.7 kg/m3
- mass density (m1 = 0.2011): 1003.37 ± 1.7 kg/m3
- mass density (m1 = 0.3016): 1006.46 ± 1.8 kg/m3
- mass density (m1 = 0.3936): 1009.25 ± 1.8 kg/m3
- mass density (m1 = 0.4878): 1012.07 ± 1.8 kg/m3
- mass density (m1 = 0.5916): 1015.1 ± 1.8 kg/m3

SMILES: CC(N)C(=O)O (stereo not drawn) [DL-2-aminopropanoic acid] + O
- mass density (m1 = 0.0436): 998.297 ± 1.7 kg/m3
- mass density (m1 = 0.08036): 999.343 ± 1.7 kg/m3
- mass density (m1 = 0.1483): 1001.26 ± 1.7 kg/m3
- mass density (m1 = 0.2059): 1002.86 ± 1.7 kg/m3
- mass density (m1 = 0.3297): 1006.26 ± 1.8 kg/m3
- mass density (m1 = 0.3863): 1007.79 ± 1.8 kg/m3
- mass density (m1 = 0.4436): 1009.33 ± 1.8 kg/m3

SMILES: CC(=O)[O-].[Na+] [sodium ethanoate] + O
- mass density (m1 = 0.5): 1023.28 ± 1.8 kg/m3
- mass density (m1 = 1): 1047.56 ± 1.8 kg/m3
- mass density (m1 = 2): 1086.81 ± 1.9 kg/m3
- mass density (m1 = 4): 1123.24 ± 2 kg/m3
- mass density (m1 = 5.5): 1139.16 ± 2 kg/m3

SMILES: CC(C)C[C@H](N)C(=O)O [L-leucine] + O
- mass density (m1 = 0.01266): 997.346 ± 1.7 kg/m3
- mass density (m1 = 0.01738): 997.458 ± 1.7 kg/m3
- mass density (m1 = 0.02274): 997.582 ± 1.7 kg/m3
- mass density (m1 = 0.03028): 997.762 ± 1.7 kg/m3
- mass density (m1 = 0.03943): 997.975 ± 1.7 kg/m3
- mass density (m1 = 0.04666): 998.149 ± 1.7 kg/m3
- mass density (m1 = 0.05611): 998.37 ± 1.7 kg/m3

SMILES: N[C@@H](Cc1ccccc1)C(=O)O [L-phenylalanine] + O
- mass density (m1 = 0.01545): 997.721 ± 1.7 kg/m3
- mass density (m1 = 0.02099): 997.961 ± 1.7 kg/m3
- mass density (m1 = 0.02977): 998.343 ± 1.7 kg/m3
- mass density (m1 = 0.03372): 998.516 ± 1.7 kg/m3
- mass density (m1 = 0.04624): 999.058 ± 1.7 kg/m3
- mass density (m1 = 0.05305): 999.349 ± 1.7 kg/m3
- mass density (m1 = 0.05832): 999.577 ± 1.7 kg/m3
